Reference: patent US20080139407A1, “Segment synthesis” (PEPSCAN SYSTEMS B. V., priority 2000, published 2008)
*: point of attachment. BrAc = O=C(CBr)*

Columns and labels:
[1] = test system: biotinylated DNA (3′-TATTCTCCGGACGAGTACCGTGAAGGGTC-Biotin-5′); experiment: Binding of biotinylated DNA by the construct of two PNAs, detected with streptavidin-horse radish peroxidase and ABTS; settings: miniwell setup, polypropylene surface
Excerpt: FIG. 10. A) Schematic presentation of a DNA/RNA scan. The constructs are scanned with a labeled protein, for example a regulatory protein, or another DNA or PNA strand (top), or alternatively overlapping peptides are scanned with biotynilated RNA, DNA or PNA (bottom). The oligonucleotide sequences are shown in SEQ ID NOS 661-666, respectively, in order of appearance. B) Working example with biotinylated DNA on construct of two PNA's.
Chemistry in short: Detection of the binding of Biotinylated DNA by the construct of two PNAs. In miniwell setup the polypropylene (PP) surface of the miniwells was functionalized with carboxyl groups using gamma irradiation (12 kGy) in the presence of CuSO4 and 6% acrylic acid. Subsequently the PP surface was amino group functionalized (using BocHMDA/DCC/HOBt with subsequent removal of the Boc group with TFA). Next the amino groups were converted in thiol groups by coupling of Fmoc-Cys-(Trt) using DCC/HOBt, removal of the Fmoc group, acetylation of the amino group followed by removal of the Trt by TFA/triethyl silan. To this PP surface functionalized with thiol groups a PNA (PNA1) was coupled which contains N-terminal a bromoacetyl group and C-terminal an extra Cys-S-tBu (the Bromo group of the PNA reacts to the thiol group of the surface). After removal of the S-tBu (using NaBH4) of the Cys-S-tBu, the coupled PNA has a thiol group on C-terminal end. […]

monoclonal antibody-03 = experiment: Control test of peptide-covered surface with monoclonal antibody-03, indirect fluorescence detection; format: binding; settings: peptide present on the whole square
monoclonal antibody-01 = experiment: Spotted peptide constructs tested against monoclonal antibody-01, indirect fluorescence detection; format: binding; settings: peptides spotted in 1 μl to 0.25 nl
Protocol: FIG. 2. A) Microturisation of spots of peptide constructs. Constructs were tested against the same monoclonal antibody-01 as was tested in FIG. 1. Binding was made visible using indirect fluorescence detection. Peptide 1, sequence with an N-terminal bromoacetamide, was synthesised on the complete surface. Peptide construct 6-1 is the same as construct 125 in FIG. 1. Peptides 2 up to 8, containing a cysteine residue, were spotted in different volumes ranging from 1 μl to 0.25 nl using piezo drop-on-demand technology. […] The identified epitope is shown in black. The disclosed peptide is shown in SEQ ID NO: 7.
The bromoacetamide peptide was covalently bound to a functionalised polypropylene/polyacrylic acid solid support in 3 μl wells as described above. The cysteine-containing sequences were synthesised on and cleaved from functionalised polyethylene pins as described above. […] On a surface of a solid support peptides are synthesized with a bromoacetamide group at the N-terminus as described above. […]

Substance | binding of biotinylated DNA to the PNA construct [1] | recognition by monoclonal antibody-03 (monoclonal antibody-03) | recognition / binding by monoclonal antibody-01 (monoclonal antibody-01)
GAGGCCTGCTspacer ATGGCACTTC (PNA, spacer, thioether coupling to polypropylene surface, chemistry not fully specified) [PNA construct, construct of PNA1 and PNA2 coupled via thioether on polypropylene surface] | binding |  | 
ADSLYTYPVATQ (BrAc-ADSLYTYPVATQ-NH2) |  | recognizes | does not recognize
